# Results reported in the supplement of paper PMC10307832.
# Experiments:
# Assay in all cases: relative viability (nuclei count vs DMSO), 5 days (fraction); higher = more cells survive
# [1] = compound: CC1=C(C(=NN1)C)CC2=C(C3=C(S2)N(C(=O)N(C3=O)C)CC(C)C)C(=O)N4C[C@@H](CO4)O + CC1(C)CCC(c2ccc(Cl)cc2)=C(CN2CCN(c3ccc(C(=O)NS(=O)(=O)c4ccc(N[C@H](CCN5CCOCC5)CSc5ccccc5)c(S(=O)(=O)C(F)(F)F)c4)cc3)CC2)C1 [Navitoclax] (partner 0.5 µM)
# In short: (§1)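 The day after seeding in 1536-well plates, lung cancer cell lines were treated by pin tool with a single drug, or with a fixed anchor-drug dose together with five library-drug doses (not always all listed) in √10 steps. After 5 days, a combined fix-and-stain solution (final 0.05% Triton X-100, 1% formaldehyde, 1 ug/ml Hoechst) was added. Nuclei counted on 4× images gave relative viability as treated counts over vehicle counts, reported as the median of duplicate plates.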
# [2] = compound: CC1=C(C(=NN1)C)CC2=C(C3=C(S2)N(C(=O)N(C3=O)C)CC(C)C)C(=O)N4C[C@@H](CO4)O + CS(=O)(=O)CCNCc1ccc(-c2ccc3ncnc(Nc4ccc(OCc5cccc(F)c5)c(Cl)c4)c3c2)o1 [Lapatinib] (partner 2 µM)
# In short: as §1
# IDH-C35 + Luminespib = compound: Cc1ccccc1C(C(=O)NC1CCCCC1)N(C(=O)Cn1ccnc1C)c1cccc(F)c1 [IDH-C35] + CCNC(=O)c1noc(-c2cc(C(C)C)c(O)cc2O)c1-c1ccc(CN2CCOCC2)cc1 [Luminespib] (partner 0.01 µM)
# In short: as §1
# IDH-C35 + Dasatinib = compound: Cc1ccccc1C(C(=O)NC1CCCCC1)N(C(=O)Cn1ccnc1C)c1cccc(F)c1 [IDH-C35] + Cc1nc(Nc2ncc(C(=O)Nc3c(C)cccc3Cl)s2)cc(N2CCN(CCO)CC2)n1 [Dasatinib] (partner 0.075 µM)
# In short: as §1
Cell Line,relative viability ([1]; first compound 0.0025 µM),relative viability ([1]; first compound 0.007906 µM),relative viability ([1]; first compound 0.025 µM),relative viability ([1]; first compound 0.07906 µM),relative viability ([1]; first compound 0.25 µM),relative viability ([2]; first compound 0.0025 µM),relative viability ([2]; first compound 0.007906 µM),relative viability ([2]; first compound 0.025 µM),relative viability ([2]; first compound 0.07906 µM),relative viability ([2]; first compound 0.25 µM),relative viability (IDH-C35 + Luminespib; first compound 0.08 µM),relative viability (IDH-C35 + Luminespib; first compound 0.253 µM),relative viability (IDH-C35 + Luminespib; first compound 0.8 µM),relative viability (IDH-C35 + Luminespib; first compound 2.53 µM),relative viability (IDH-C35 + Luminespib; first compound 8 µM),relative viability (IDH-C35 + Dasatinib; first compound 0.08 µM),relative viability (IDH-C35 + Dasatinib; first compound 0.253 µM),relative viability (IDH-C35 + Dasatinib; first compound 0.8 µM),relative viability (IDH-C35 + Dasatinib; first compound 2.53 µM),relative viability (IDH-C35 + Dasatinib; first compound 8 µM)
NCI-H520,1.22,1.16,0.654,0.558,0.683,0.983,0.823,0.621,0.496,0.544,0.26,0.189,0.27,0.21,0.269,0.191,0.159,0.202,0.181,0.217
NCI-H647,1.15,1.43,1.01,1.32,1.42,1.28,1.35,1.04,1.15,1.19,0.146,0.256,0.357,0.241,0.126,0.194,0.204,0.198,0.223,0.192
NCI-H1792,0.608,0.572,0.445,0.509,0.524,0.963,0.931,0.834,0.746,0.824,0.477,0.473,0.499,0.413,0.493,0.725,0.728,0.473,0.944,0.815
SK-LU-1,0.717,0.662,0.528,0.744,0.545,0.805,0.425,0.263,0.295,0.4,0.219,0.207,0.188,0.225,0.259,0.188,0.181,0.172,0.177,0.191
NCI-H1650,1.37,1.22,1.2,1.27,1.21,0.954,1.12,0.875,0.881,0.926,0.207,0.182,0.214,0.2,0.199,0.328,0.35,0.328,0.269,0.304
NCI-H2009,1.23,1.21,1.11,1.18,1.22,1.12,1.48,0.963,1.04,1.26,1.08,1.01,0.999,0.921,1.01,0.309,0.33,0.341,0.311,0.303
LOU-NH91,0.773,0.604,0.776,0.809,0.788,0.74,0.755,0.815,0.781,0.813,0.331,0.368,0.297,0.354,0.328,0.554,0.538,0.558,0.531,0.557
NCI-H2405,0.795,0.652,–,0.983,0.864,1.26,1.1,–,1.18,1.12,0.755,0.63,0.614,0.706,0.64,0.209,0.212,0.213,0.206,0.184
LCLC-97TM1,0.394,0.613,0.404,0.373,0.467,0.721,0.776,0.896,0.972,1.13,0.842,0.734,0.682,0.738,0.604,0.87,0.796,0.822,0.818,0.809
NCI-H596,1.06,1.16,0.931,1.01,1.16,1.12,1.19,1.14,0.982,1.09,1.04,0.974,1.22,–,0.97,0.588,0.759,0.693,–,0.56
NCI-H727,0.44,0.36,0.344,0.364,0.439,1.17,0.857,0.781,0.569,0.869,0.27,0.398,0.39,0.407,0.33,0.514,0.315,0.366,0.388,0.446
H3255,0.562,0.542,0.516,0.487,0.568,0.24,0.244,0.25,0.241,0.223,0.845,0.998,0.734,1.03,0.882,0.406,0.415,0.306,0.453,0.331
SK-MES-1,1.3,1.42,1.12,1.28,1.33,0.474,0.462,0.445,0.434,0.454,0.701,0.939,0.855,0.861,0.749,0.433,0.353,0.424,0.355,0.336
NCI-H1437,1.16,1.2,1.08,1.1,1.09,0.925,0.981,0.738,0.795,0.922,1.08,1.04,1.06,1.06,1.1,0.442,0.448,0.432,0.314,0.308
LU99A,0.74,0.887,0.76,0.845,0.458,1.22,0.982,0.9,0.975,1.11,0.244,0.286,0.239,0.236,0.25,0.684,0.552,0.586,0.639,0.542
HCC-827,0.983,1.08,1.03,1.04,1.04,0.189,0.171,0.192,0.156,0.167,0.788,0.526,0.472,0.569,0.516,0.328,0.263,0.29,0.32,0.382
LK-2,0.884,0.852,0.746,0.983,0.949,0.987,0.933,0.787,0.903,0.851,0.173,0.177,0.205,0.176,0.184,0.243,0.295,0.27,0.299,0.335
BEN,0.0618,0.0913,0.0867,0.0968,0.0771,0.669,0.672,0.629,0.526,0.741,0.373,0.391,0.311,0.425,0.333,0.308,0.373,0.289,0.333,0.293
NCI-H23,0.908,0.904,0.807,1.02,0.901,1.21,1.26,0.931,1.27,1.28,0.207,0.224,0.201,0.202,0.227,0.779,0.718,0.738,0.901,0.864
NCI-H1395,1.09,0.931,1.01,0.859,0.886,0.941,0.948,0.776,0.839,0.949,0.757,0.655,0.744,0.763,0.714,0.416,0.376,0.4,0.41,0.381
201T,1.22,1.22,1.17,1.14,1.21,1.05,1,1.03,0.986,1.06,1.05,1.07,1.02,1.04,1.01,0.575,0.569,0.607,0.582,0.529
NCI-H2170,0.613,0.747,0.556,0.612,0.543,0.282,0.279,0.276,0.273,0.306,0.678,0.799,0.684,0.687,0.72,0.542,0.594,0.594,0.678,0.538
NCI-H460,1.19,1.26,0.994,1.13,1.34,0.959,1.34,0.996,1.08,1.28,0.0343,0.0424,0.0346,0.0408,0.0379,0.379,0.512,0.49,0.479,0.495
HCC-15,0.735,0.725,0.712,0.698,0.675,0.941,0.814,0.786,0.82,0.899,0.246,0.251,0.178,–,0.314,0.542,0.639,0.599,–,0.59
EPLC-272H,1.17,1.26,1.07,1.08,1.28,1.08,0.736,0.907,1.19,0.937,0.262,0.265,0.605,0.351,0.428,0.432,0.357,0.506,0.653,0.323
